Source: patent US6872562B2, “Herbicide resistant dinitrogen fixing bacteria and method of use” (priority 2001, dated 2005)

Key:
[1] = tested on: TV5866RR soybean inoculated with B. japonicum (USDA 110); experiment: Growth cabinet time course of nodule acetylene reduction activity (ARA); format: in vivo, soybean (Glycine max); conditions: 1.68 kg ha^−1 at 5, 12, and 19 DAE
Source text: The time course of nodule activity from 14 to 28 DAE was followed in a series of four runs of an experiment in a growth cabinet. Soybean seeds were sown in N-free potting media in pots constructed of 15-cm diameter polyvinyl chloride pipe. These pipes allow nondestructive measurement of nodule activity by the acetylene reduction assay as described by Purcell et al. (1997). Seeds were inoculated with B. japonicum (USDA 110), and pots were supplied with N-free nutrients. […] Acetylene reduction activity (ARA) was measured at 14, 21, and 28 DAE by passing a 9:1 air to acetylene mixture through the pots at 0.5 L min^−1. After 8 min., 1-mL aliquots of the effluent gas stream were collected from each pot and analyzed for ethylene by gas chromatography. Nitrogenase activity for glyphosate-treated and control plants was similar at 14 DAE, except for Run 4 when ARA was lower for glyphosate-treated plants (Table 5). ARA was 12 to 20% lower for glyphosate-treated plants at 21 DAE in three of the four runs. By 28 DAE, ARA was lower in glyphosate-treated plants only in Run 2 and was greater than control plants in Run 1.

[2] = tested on: B. japonicum (strain USDA 110); experiment: Growth of B. japonicum in defined liquid media with glyphosate up to 10 mM (Example 6); format: cell-based; conditions: Bradyrhizobium japonicum, 216 h, read-out: Growth inhibition compared to the control without glyphosate
Method: The defined media consists of 25 mM arabinose as the carbon source, 15 mM (NH4)2SO4, 0.7 mM MgSO4, 0.4 mM CaCl2, 20 mM NaCl, 2.5 mM K2HPO4, and 40 mM MOPS (3-[N-morpholino]propane-sulfonic acid), at pH 6.8, plus the appropriate micronutrients. […] These colonies were removed and stored in frozen culture in 50% sterile glycerol.

Wild type USDA 110 = experiment: Growth in Tulley's media with 5 mM glyphosate, wild type (Example 7); format: cell-based, Bradyrhizobium japonicum
Method: Duplicate cultures were evaluated from each of the original colony selections. […] The cultures were allowed to grow for 14 days, and then the OD of each culture was measured.

[3] = tested on: B. japonicum (strain USDA 110); experiment: B. japonicum growth in culture with increasing glyphosate (Example 12); format: cell-based; conditions: Bradyrhizobium japonicum, 168 h; read-out: Growth inhibition relative to the control
Method: 0.1, 1, 3, and 5 mM. […] At concentrations as low as 0.01 mM, B. japonicum growth was inhibited 18% relative to the control (FIG. 4). At a concentration of 0.1 mM, growth was inhibited approximately 40% relative to the control.

[4] = tested on: glyphosate resistant soybean cultivar DK5961RR inoculated with B. japonicum (USDA 110); experiment: Seed-imbibed glyphosate: nodulation, greenhouse experiment; format: in vivo
Method: (§1) Pots 15-cm in diameter, with a total volume of 1.3 L were filled with a peat based potting mix that was saturated with a nitrogen-free nutrient solution. Six seeds from a particular glyphosate-concentration seed soak were planted in each pot and 1 ml of B. japonicum (USDA 110) containing approximately 4.24×10^6 cells was applied evenly across the surface and washed into the potting mix with 250 ml of minus N nutrients. Plants were thinned to one per pot after emergence. Day and night temperatures were approximately 30 and 24 C, respectively, and natural illumination was supplemented with 1000 W metal-halide lamps for a day length of 16 hours. […] Root nodules were scanned and images were used to determine nodule number and size as influenced by glyphosate treatment. The […] was repeated in a controlled environmental growth chamber with six replications. Growth chamber temperature was a constant 25 C and light and dark periods were 16 and 8 hours, respectively. Plants were harvested at 15 days after planting and sectioned as previously described (Example 1).

[5] = tested on: glyphosate resistant soybean cultivar DK5961RR inoculated with B. japonicum (USDA 110); experiment: Seed-imbibed glyphosate: nodulation, growth chamber experiment; format: in vivo; conditions: glyphosate concentrations greater than 12 mM
Method: as §1

Strains USDA 123 and 138 = conditions: 5 mM concentration; cited from earlier work

O=C(O)CNCP(=O)(O)O [glyphosate, N-(phosphonomethyl)glycine]
Acetylene reduction activity (mean ± SE) ([1]; Run 1, 14 DAE): 33 ± 2 μmol C2H4 plant^−1 h^−1 | Acetylene reduction activity (mean ± SE) ([1]; Run 1, 21 DAE): 45 ± 3 μmol C2H4 plant^−1 h^−1 | Acetylene reduction activity (mean ± SE) ([1]; Run 1, 28 DAE): 76 ± 7 μmol C2H4 plant^−1 h^−1 | Acetylene reduction activity (mean ± SE) ([1]; Run 2, 14 DAE): 23 ± 3 μmol C2H4 plant^−1 h^−1 | Acetylene reduction activity (mean ± SE) ([1]; Run 2, 21 DAE): 53 ± 6 μmol C2H4 plant^−1 h^−1 | Acetylene reduction activity (mean ± SE) ([1]; Run 2, 28 DAE): 70 ± 4 μmol C2H4 plant^−1 h^−1 | Acetylene reduction activity (mean ± SE) ([1]; Run 3, 14 DAE): 57 ± 13 μmol C2H4 plant^−1 h^−1 | Acetylene reduction activity (mean ± SE) ([1]; Run 3, 21 DAE): 75 ± 9 μmol C2H4 plant^−1 h^−1 | Acetylene reduction activity (mean ± SE) ([1]; Run 3, 28 DAE): 115 ± 13 μmol C2H4 plant^−1 h^−1 | Acetylene reduction activity (mean ± SE) ([1]; Run 4, 14 DAE): 28 ± 4 μmol C2H4 plant^−1 h^−1 | Acetylene reduction activity (mean ± SE) ([1]; Run 4, 21 DAE): 56 ± 3 μmol C2H4 plant^−1 h^−1 | Acetylene reduction activity (mean ± SE) ([1]; Run 4, 28 DAE): 107 ± 14 μmol C2H4 plant^−1 h^−1 | inhibition at 10000 µM [2]: ~90% | Growth, % of USDA 110 in the absence of glyphosate (Wild type USDA 110; 14 days): 33% | OD600 (Wild type USDA 110; USDA 110, after 14 days): 0.44 b^ | inhibition at 10 µM [3]: 18% | inhibition at 100 µM [3]: ~40% | Reduction in nodule number compared to the control ([4]; 3.1 mM glyphosate seed treatment, 10 DAP): ~30% | Nodule number ([4]; glyphosate concentrations greater than 3.1 mM): increased to values similar to that of plants from the control treatment | Average diameter of individual nodules ([4]; increasing glyphosate concentrations, 17 DAP): tended to decrease | Nodule number [5]: progressively decreased | Inhibition (Strains USDA 123 and 138): 100%
